Assay results: patent publication US20220409649A1, “a-GLUCOSIDASE INHIBITOR, INVERTASE INHIBITOR, AND SUGAR ABSORPTION INHIBITOR” (Kinki University, priority 2019, published 2022)

What was measured:
[1] = biological target: invertase (Saccharomyces cerevisiae, UniProt P00724); assay: Invertase inhibition analysis by compound (I); assay type: biochemical
Method: For invertase inhibition analysis, 100 μg of sucrose as a substrate and 1 μg, 10 μg, or 100 μg of the compound (I) being the invertase inhibitor were added to 50 μL of 100 mmol/L acetate buffer solution, and pre-incubation was performed at 37° C. for five minutes. Thereafter, 50 μL of 0.2 U/mL invertase solution was added, and incubation was performed for 15 minutes. Thereafter, 10 μL of the reaction mixture was heated in a water bath to inactivate the enzyme and evaporated and dried, and the PMP derivatization was performed. A substance subjected to the enzyme reaction under the same conditions without adding the inhibitor was used as a blank. In each sample, the concentration required for the compound (I) to inhibit 50% of the enzyme was defined as IC50. An inhibition rate by the compound (I) was calculated using a following equation.
Inhibition rate (%)=[D1−(D2−D3)/1]×100 (Equation 1)
D1: Peak area of glucose in blank sample
D2: Peak area of glucose in each sample after enzyme reaction
D3: Peak area of glucose contained in inhibitor as an impurity
The IC50 value was calculated from a dose-response curve of the compound (I) used as the inhibitor.

[2] = system: Maltase α-(1-4)glucosidase; assay: Maltase inhibition analysis by compound (I) (Table 2); assay type: biochemical
[3] = biological target: T1, sucrase (sucrose as substrate) (Rattus norvegicus, UniProt P23739); assay: Screening of enzyme inhibition, rat intestinal acetone powder crude enzyme, sucrose as substrate; assay type: biochemical; conditions: 10 μL inhibitor solution (3.4 mg/mL diluted 100 times), five hours
T1 construct: the supernatant was used as a purified enzyme; from tissue; host or cells: rat intestine (acetone powder, supernatant of homogenate)
Method: (§1) As a crude enzyme mixture, 50 mg of rat intestinal acetone powder was added to 450 μL of 50 mmol/L phosphate buffer solution (pH 6.0), the mixture was stirred for 30 seconds, and then homogenized. Thereafter, the mixture was centrifuged (10000 rpm, 4° C., 20 minutes), and the supernatant was used as a purified enzyme (50 mg/450 μL). Sucrose and two types of glucose disaccharides (maltose and isomaltose) having different bonds were used as substrates. 3.4 mg of each of the two types of substrates was dissolved in 100 μL of phosphate buffer solution, and each solution was used as a substrate solution. A solution obtained by dissolving 3.4 mg of the compound (I) as a competitive inhibitor in 1 mL of phosphate buffer solution and diluting 100 times, was used as an inhibitor solution. 100 μL of the substrate solution and 10 μL of the inhibitor solution were mixed, and pre-incubation was performed for five minutes. Then, 90 μL of an enzyme solution was added to start incubation. Five hours later, 10 μL of the reaction solution was heated in a water bath for 10 minutes to stop the reaction, followed by the PMP derivatization, and then the capillary electrophoresis. An enzyme reaction solution under the same conditions without the inhibitor was used as a blank. The inhibition rate was calculated for each substrate using the same equation as that in the invertase inhibition analysis.

[4] = system: maltase (maltose as substrate); assay: Screening of enzyme inhibition, rat intestinal acetone powder crude enzyme, maltose as substrate; assay type: biochemical; conditions: 10 μL inhibitor solution (3.4 mg/mL diluted 100 times), five hours
Method: as §1

[5] = biological target: T2, isomaltase (isomaltose as substrate) (Rattus norvegicus, UniProt P23739); assay: Screening of enzyme inhibition, rat intestinal acetone powder crude enzyme, isomaltose as substrate; assay type: biochemical; conditions: 10 μL inhibitor solution (3.4 mg/mL diluted 100 times), five hours
T2 construct: the supernatant was used as a purified enzyme; from tissue; host or cells: rat intestine (acetone powder, supernatant of homogenate)
Method: as §1

[6] = Oral glucose tolerance testing using sucrose, normal rats; assay type: in vivo, normal Wistar type rats; conditions: oral co-administration with sucrose 1.5 g/kg, FIG. 7
Method: (§2) Glucose tolerance testing of normal Wistar type rats and OLETF rats with diabetes was performed using the compound (I). After fasted for 14 hours, glucose was loaded, and blood taken from tail veins of the rats was subjected to various tests.
(§3) An aqueous solution containing […] of sucrose (hereinafter, also referred to as “A Liquid”) and an aqueous solution containing […] of sucrose and 0.085 mg/ml of the compound (I) (hereinafter, also referred to as “B Liquid”) were prepared. Six normal 7-week-old rats (male) were divided into two groups. In one group, the A liquid was orally administered such that an amount of sucrose was 1.5 g/kg based on the rat body weight. In the other group, the B liquid was orally administered such that the amount of sucrose was 1.5 g/kg based on the rat body weight. Blood was taken from the tail veins of the rats before the administration and in 30 minutes, 60 minutes, 90 minutes, and 120 minutes after the administration, and then plasma was obtained by centrifugation. For the obtained plasma, glucose and insulin were quantified.

[7] = Oral glucose tolerance testing using sucrose, OLETF rats with diabetes; assay type: in vivo; conditions: oral co-administration with sucrose, FIG. 8
Method: as §2, §3

Chain of invertase (P00724 20-532): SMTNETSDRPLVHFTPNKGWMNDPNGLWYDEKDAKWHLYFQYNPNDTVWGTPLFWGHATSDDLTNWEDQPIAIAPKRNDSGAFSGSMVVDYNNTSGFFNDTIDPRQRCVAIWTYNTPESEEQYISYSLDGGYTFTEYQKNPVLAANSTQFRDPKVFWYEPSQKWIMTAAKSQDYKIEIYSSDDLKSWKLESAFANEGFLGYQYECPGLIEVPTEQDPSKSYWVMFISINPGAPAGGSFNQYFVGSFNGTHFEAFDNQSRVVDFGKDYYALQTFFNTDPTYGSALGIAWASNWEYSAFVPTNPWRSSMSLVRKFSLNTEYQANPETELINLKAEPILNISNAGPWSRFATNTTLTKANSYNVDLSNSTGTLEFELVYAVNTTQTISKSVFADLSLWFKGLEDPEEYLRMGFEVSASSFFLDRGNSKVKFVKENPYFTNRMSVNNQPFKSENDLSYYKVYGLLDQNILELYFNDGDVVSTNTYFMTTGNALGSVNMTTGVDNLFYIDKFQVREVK
T1 sequence (P23739 1-1013 limits assumed): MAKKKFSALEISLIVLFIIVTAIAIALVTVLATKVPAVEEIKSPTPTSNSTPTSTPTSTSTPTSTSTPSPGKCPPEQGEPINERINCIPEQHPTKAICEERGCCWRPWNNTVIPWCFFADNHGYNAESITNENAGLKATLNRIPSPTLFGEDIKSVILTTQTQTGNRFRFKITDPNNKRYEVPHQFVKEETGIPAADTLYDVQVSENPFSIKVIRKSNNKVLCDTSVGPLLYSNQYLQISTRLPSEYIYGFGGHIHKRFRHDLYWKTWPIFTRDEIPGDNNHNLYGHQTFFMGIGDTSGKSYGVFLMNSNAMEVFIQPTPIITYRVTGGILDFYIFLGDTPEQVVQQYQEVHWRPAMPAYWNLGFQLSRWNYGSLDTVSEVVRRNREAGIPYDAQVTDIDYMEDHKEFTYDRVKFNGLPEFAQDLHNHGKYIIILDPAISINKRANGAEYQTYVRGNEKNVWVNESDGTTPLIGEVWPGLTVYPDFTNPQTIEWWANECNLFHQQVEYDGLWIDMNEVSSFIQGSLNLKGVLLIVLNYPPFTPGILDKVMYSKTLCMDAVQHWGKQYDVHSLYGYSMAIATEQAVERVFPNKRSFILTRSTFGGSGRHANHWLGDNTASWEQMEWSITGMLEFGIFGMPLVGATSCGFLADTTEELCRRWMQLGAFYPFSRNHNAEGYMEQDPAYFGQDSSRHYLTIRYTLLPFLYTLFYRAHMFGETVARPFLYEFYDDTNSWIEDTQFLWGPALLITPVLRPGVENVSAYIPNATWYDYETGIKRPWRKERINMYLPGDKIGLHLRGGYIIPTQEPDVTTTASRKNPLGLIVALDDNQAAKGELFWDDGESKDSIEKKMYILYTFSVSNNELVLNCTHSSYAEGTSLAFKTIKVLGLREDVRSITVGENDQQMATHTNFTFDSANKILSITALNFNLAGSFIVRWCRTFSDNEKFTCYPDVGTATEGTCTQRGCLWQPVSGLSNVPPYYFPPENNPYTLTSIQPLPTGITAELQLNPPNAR
T1 sequence (P23739 1014-1841 limits assumed): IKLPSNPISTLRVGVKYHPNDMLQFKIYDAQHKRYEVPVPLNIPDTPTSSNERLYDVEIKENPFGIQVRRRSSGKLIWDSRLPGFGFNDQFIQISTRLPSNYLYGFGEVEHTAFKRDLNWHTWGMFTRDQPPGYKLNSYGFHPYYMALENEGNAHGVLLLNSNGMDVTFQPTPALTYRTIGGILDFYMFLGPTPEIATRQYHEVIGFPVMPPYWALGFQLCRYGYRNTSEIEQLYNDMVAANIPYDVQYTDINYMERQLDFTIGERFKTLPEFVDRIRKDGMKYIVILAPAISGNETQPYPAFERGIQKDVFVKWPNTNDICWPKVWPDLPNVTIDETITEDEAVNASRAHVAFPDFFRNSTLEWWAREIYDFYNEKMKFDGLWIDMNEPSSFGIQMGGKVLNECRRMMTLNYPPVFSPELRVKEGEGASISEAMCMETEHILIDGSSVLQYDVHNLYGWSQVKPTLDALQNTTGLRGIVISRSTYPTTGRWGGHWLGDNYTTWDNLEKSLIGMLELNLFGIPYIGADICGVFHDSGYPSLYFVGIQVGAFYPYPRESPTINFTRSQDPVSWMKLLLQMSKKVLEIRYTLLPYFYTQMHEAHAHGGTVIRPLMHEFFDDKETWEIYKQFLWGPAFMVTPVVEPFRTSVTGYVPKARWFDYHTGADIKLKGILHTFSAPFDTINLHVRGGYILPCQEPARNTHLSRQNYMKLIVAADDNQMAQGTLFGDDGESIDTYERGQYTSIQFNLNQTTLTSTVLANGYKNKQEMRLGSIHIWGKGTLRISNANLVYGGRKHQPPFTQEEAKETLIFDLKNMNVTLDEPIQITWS
T2 sequence (P23739 1-1013 limits assumed): as the sequence (P23739 1-1013 limits assumed) above
T2 sequence (P23739 1014-1841 limits assumed): as the sequence (P23739 1014-1841 limits assumed) above

OCC1OC(CO)(OCC2OC(O)C(O)C(O)C2O)C(O)C1O (centres unmarked) [compound (I), Maplebiose]
Peak response (Glc) ([1]; 1 μg inhibitor): 18.2 | Peak response (Glc) ([1]; 10 μg inhibitor): 17.2 | Peak response (Glc) ([1]; 100 μg inhibitor): 23.1 | Inhibition (%) ([2]; 1 μg inhibitor): 39.1% | Inhibition (%) ([2]; 10 μg inhibitor): 49.4% | Inhibition (%) ([2]; 100 μg inhibitor): 54.2% | IC50 ([2]; calculated using a straight line from concentrations and inhibition rates): 1720 µM | Inhibition rate [3]: 12.3% | Inhibition rate [4]: 9.4% | Inhibition rate [5]: 3.3% | changes with time of insulin [6]: similar | plasma glucose value vs rats not administered with the compound (I) [6]: significantly lower | changes with time of insulin [7]: similar | plasma glucose value relative to rats not administered with the compound (I) [7]: about 50%
